Results from patent publication US20260130395A1, “Water Dispersible Botanical Compositions” (Aquila Black Limited, priority 2021, published 2026).

Assay: Stability of cannabinoid compounds and Vitamin E components in Beverage 1 (AB White) by LCMSMS
Assay type: physicochemical
Details: for Stability of Plant-Derived Cannabinoid Compounds in AB White, 8° C.: AB White stored at 8° C.; for Stability of Plant-Derived Cannabinoid Compounds in AB White, 21-25° C.: AB White stored at 21-25° C.

CCCc1cc(O)c2c(c1)OC(C)(C)[C@@H]1CCC(C)=C[C@@H]21 [THCV, delta-9-tetrahydrocannabivarin]
Stability of Plant-Derived Cannabinoid Compounds in AB White, 8° C. (0 days): 3.6 µg/mL
Stability of Plant-Derived Cannabinoid Compounds in AB White, 8° C. (1 days): 3.54 µg/mL
Stability of Plant-Derived Cannabinoid Compounds in AB White, 8° C. (2 days): 3.60 µg/mL
Stability of Plant-Derived Cannabinoid Compounds in AB White, 8° C. (3 days): 3.55 µg/mL
Stability of Plant-Derived Cannabinoid Compounds in AB White, 8° C. (5 days): 3.58 µg/mL
Stability of Plant-Derived Cannabinoid Compounds in AB White, 8° C. (8 days): 3.60 µg/mL
Stability of Plant-Derived Cannabinoid Compounds in AB White, 8° C. (9 days): 3.61 µg/mL
Stability of Plant-Derived Cannabinoid Compounds in AB White, 8° C. (10 days): 3.58 µg/mL
Stability of Plant-Derived Cannabinoid Compounds in AB White, 8° C. (11 days): 3.59 µg/mL
Stability of Plant-Derived Cannabinoid Compounds in AB White, 8° C. (12 days): 3.50 µg/mL
Stability of Plant-Derived Cannabinoid Compounds in AB White, 8° C. (15 days): 3.56 µg/mL
Stability of Plant-Derived Cannabinoid Compounds in AB White, 8° C. (16 days): 3.57 µg/mL
Stability of Plant-Derived Cannabinoid Compounds in AB White, 8° C. (17 days): 3.61 µg/mL
Stability of Plant-Derived Cannabinoid Compounds in AB White, 8° C. (18 days): 3.59 µg/mL
Stability of Plant-Derived Cannabinoid Compounds in AB White, 8° C. (19 days): 3.51 µg/mL
Stability of Plant-Derived Cannabinoid Compounds in AB White, 8° C. (22 days): 3.60 µg/mL
Stability of Plant-Derived Cannabinoid Compounds in AB White, 8° C. (23 days): 3.55 µg/mL
Stability of Plant-Derived Cannabinoid Compounds in AB White, 8° C. (24 days): 3.56 µg/mL
Stability of Plant-Derived Cannabinoid Compounds in AB White, 8° C. (25 days): 3.56 µg/mL
Stability of Plant-Derived Cannabinoid Compounds in AB White, 8° C. (26 days): 3.63 µg/mL
Stability of Plant-Derived Cannabinoid Compounds in AB White, 8° C. (29 days): 3.52 µg/mL
Stability of Plant-Derived Cannabinoid Compounds in AB White, 8° C. (30 days): 3.59 µg/mL
Stability of Plant-Derived Cannabinoid Compounds in AB White, 8° C. (60 days): 3.58 µg/mL
Stability of Plant-Derived Cannabinoid Compounds in AB White, 8° C. (90 days): 3.56 µg/mL
Stability of Plant-Derived Cannabinoid Compounds in AB White, 8° C. (120 days): 3.56 µg/mL
Stability of Plant-Derived Cannabinoid Compounds in AB White, 8° C. (150 days): 3.55 µg/mL
Stability of Plant-Derived Cannabinoid Compounds in AB White, 8° C. (180 days): 3.59 µg/mL
Stability of Plant-Derived Cannabinoid Compounds in AB White, 8° C. (210 days): 3.44 µg/mL
Stability of Plant-Derived Cannabinoid Compounds in AB White, 8° C. (240 days): 3.56 µg/mL
Stability of Plant-Derived Cannabinoid Compounds in AB White, 8° C. (270 days): 3.47 µg/mL
Stability of Plant-Derived Cannabinoid Compounds in AB White, 8° C. (300 days): 3.46 µg/mL
Stability of Plant-Derived Cannabinoid Compounds in AB White, 8° C. (330 days): 3.52 µg/mL
Stability of Plant-Derived Cannabinoid Compounds in AB White, 8° C. (360 days): 3.50 µg/mL
Stability of Plant-Derived Cannabinoid Compounds in AB White, 8° C. (390 days): 3.47 µg/mL
Stability of Plant-Derived Cannabinoid Compounds in AB White, 8° C. (420 days): 3.49 µg/mL
Stability of Plant-Derived Cannabinoid Compounds in AB White, 8° C. (450 days): 3.44 µg/mL
Stability of Plant-Derived Cannabinoid Compounds in AB White, 8° C. (480 days): 3.44 µg/mL
Stability of Plant-Derived Cannabinoid Compounds in AB White, 8° C. (510 days): 3.34 µg/mL
Stability of Plant-Derived Cannabinoid Compounds in AB White, 8° C. (540 days): 3.32 µg/mL
Stability of Plant-Derived Cannabinoid Compounds in AB White, 8° C. (570 days): 3.30 µg/mL
Stability of Plant-Derived Cannabinoid Compounds in AB White, 21-25° C. (0 days): 3.6 µg/mL
Stability of Plant-Derived Cannabinoid Compounds in AB White, 21-25° C. (1 days): 3.48 µg/mL
Stability of Plant-Derived Cannabinoid Compounds in AB White, 21-25° C. (2 days): 3.58 µg/mL
Stability of Plant-Derived Cannabinoid Compounds in AB White, 21-25° C. (3 days): 3.54 µg/mL
Stability of Plant-Derived Cannabinoid Compounds in AB White, 21-25° C. (5 days): 3.55 µg/mL
Stability of Plant-Derived Cannabinoid Compounds in AB White, 21-25° C. (8 days): 3.63 µg/mL
Stability of Plant-Derived Cannabinoid Compounds in AB White, 21-25° C. (9 days): 3.55 µg/mL
Stability of Plant-Derived Cannabinoid Compounds in AB White, 21-25° C. (10 days): 3.55 µg/mL
Stability of Plant-Derived Cannabinoid Compounds in AB White, 21-25° C. (11 days): 3.59 µg/mL
Stability of Plant-Derived Cannabinoid Compounds in AB White, 21-25° C. (12 days): 3.47 µg/mL
Stability of Plant-Derived Cannabinoid Compounds in AB White, 21-25° C. (15 days): 3.48 µg/mL
Stability of Plant-Derived Cannabinoid Compounds in AB White, 21-25° C. (16 days): 3.60 µg/mL
Stability of Plant-Derived Cannabinoid Compounds in AB White, 21-25° C. (17 days): 3.51 µg/mL
Stability of Plant-Derived Cannabinoid Compounds in AB White, 21-25° C. (18 days): 3.50 µg/mL
Stability of Plant-Derived Cannabinoid Compounds in AB White, 21-25° C. (19 days): 3.59 µg/mL
Stability of Plant-Derived Cannabinoid Compounds in AB White, 21-25° C. (22 days): 3.52 µg/mL
Stability of Plant-Derived Cannabinoid Compounds in AB White, 21-25° C. (23 days): 3.57 µg/mL
Stability of Plant-Derived Cannabinoid Compounds in AB White, 21-25° C. (24 days): 3.63 µg/mL
Stability of Plant-Derived Cannabinoid Compounds in AB White, 21-25° C. (25 days): 3.54 µg/mL
Stability of Plant-Derived Cannabinoid Compounds in AB White, 21-25° C. (26 days): 3.55 µg/mL
